Data on five compounds can be found in PubChem BioAssay AID1259407 (Chemical Carcinogenesis Research Information System (CCRIS), 2018).

The data set relates to CCRIS mutagenicity, Ames/micronucleus/aberration tests. Kind of data set: CCRIS mutagenicity studies.
[1] abbreviates: Test System: AMES SALMONELLA TYPHIMURIUM, Strain/Indicator: TA98, Metabolic Activation: NONE, Method: PREINCUBATION
[2] abbreviates: Test System: AMES SALMONELLA TYPHIMURIUM, Strain/Indicator: TA100, Metabolic Activation: NONE, Method: PREINCUBATION
Setting [3] is: Test System: AMES SALMONELLA TYPHIMURIUM, Strain/Indicator: TA1535, Metabolic Activation: HAMSTER, LIVER, S-9, AROCLOR 1254 (10%), Method: PREINCUBATION
[4] abbreviates: Test System: AMES SALMONELLA TYPHIMURIUM, Strain/Indicator: TA1535, Metabolic Activation: NONE, Method: PREINCUBATION
Setting [5] is: Test System: AMES SALMONELLA TYPHIMURIUM, Strain/Indicator: TA1535, Metabolic Activation: RAT, LIVER, S-9, AROCLOR 1254 (10%), Method: PREINCUBATION
[6] abbreviates: Test System: AMES SALMONELLA TYPHIMURIUM, Strain/Indicator: TA1537, Metabolic Activation: NONE, Method: PREINCUBATION
[7] abbreviates: Test System: AMES SALMONELLA TYPHIMURIUM, Strain/Indicator: TA97, Metabolic Activation: NONE, Method: PREINCUBATION
The mark [8] stands for this setting: Test System: AMES SALMONELLA TYPHIMURIUM, Strain/Indicator: TA98, Metabolic Activation: HAMSTER, LIVER, S-9, AROCLOR 1254 (10 OR 30%), Method: PREINCUBATION
Where [9] appears, read: Test System: AMES SALMONELLA TYPHIMURIUM, Strain/Indicator: TA98, Metabolic Activation: RAT, LIVER, S-9, AROCLOR 1254 (10 OR 30%), Method: PREINCUBATION
Where [10] appears, read: Test System: AMES SALMONELLA TYPHIMURIUM, Strain/Indicator: TA100, Metabolic Activation: HAMSTER, LIVER, S-9, AROCLOR 1254 (10 OR 30%), Method: PREINCUBATION
Where [11] appears, read: Test System: AMES SALMONELLA TYPHIMURIUM, Strain/Indicator: TA100, Metabolic Activation: RAT, LIVER, S-9, AROCLOR 1254 (10 OR 30%), Method: PREINCUBATION

Activity calls are given as the source filed them. How the calls were made is not given here.

Turning to `O=C1c2c(Br)c(Br)c(Br)c(Br)c2C(=O)N1CCN1C(=O)c2c(Br)c(Br)c(Br)c(Br)c2C1=O`, the mutagenic call was “inactive; negative” (Test System: AMES SALMONELLA TYPHIMURIUM, Strain/Indicator: TA98, Metabolic Activation: HAMSTER, LIVER, S-9, AROCLOR 1254 (10%), Method: PREINCUBATION); “inactive; negative” under setting [1]; “inactive; negative” (Test System: AMES SALMONELLA TYPHIMURIUM, Strain/Indicator: TA98, Metabolic Activation: RAT, LIVER, S-9, AROCLOR 1254 (10%), Method: PREINCUBATION); “inactive; negative” (Test System: AMES SALMONELLA TYPHIMURIUM, Strain/Indicator: TA100, Metabolic Activation: HAMSTER, LIVER, S-9, AROCLOR 1254 (10%), Method: PREINCUBATION); “inactive; negative” under setting [2]; “inactive; negative” (Test System: AMES SALMONELLA TYPHIMURIUM, Strain/Indicator: TA100, Metabolic Activation: RAT, LIVER, S-9, AROCLOR 1254 (10%), Method: PREINCUBATION). Moreover, the mutagenic call by setting is: under setting [3], “inactive; negative”; under setting [4], “inactive; negative”; under setting [5], “inactive; negative”; (Test System: AMES SALMONELLA TYPHIMURIUM, Strain/Indicator: TA1537, Metabolic Activation: HAMSTER, LIVER, S-9, AROCLOR 1254 (10%), Method: PREINCUBATION) “inactive; negative”; under setting [6], “inactive; negative”; (Test System: AMES SALMONELLA TYPHIMURIUM, Strain/Indicator: TA1537, Metabolic Activation: RAT, LIVER, S-9, AROCLOR 1254 (10%), Method: PREINCUBATION) “inactive; negative”.

For `N=C(N)N`, the mutagenic call is “inactive; negative” under setting [1]; “inactive; negative” (Test System: AMES SALMONELLA TYPHIMURIUM, Strain/Indicator: TA98, Metabolic Activation: RAT LIVER S-9, PHENOBARBITAL AND BETA-NAPHTHOFLAVONE, Method: PREINCUBATION); “inactive; negative” under setting [2]; “inactive; negative” (Test System: AMES SALMONELLA TYPHIMURIUM, Strain/Indicator: TA100, Metabolic Activation: RAT LIVER S-9, PHENOBARBITAL AND BETA-NAPHTHOFLAVONE, Method: PREINCUBATION); “inactive; negative” under setting [4]; “inactive; negative” (Test System: AMES SALMONELLA TYPHIMURIUM, Strain/Indicator: TA1535, Metabolic Activation: RAT LIVER S-9, PHENOBARBITAL AND BETA-NAPHTHOFLAVONE, Method: PREINCUBATION). The mutagenic call was “inactive; negative” under setting [6]; “inactive; negative” (Test System: AMES SALMONELLA TYPHIMURIUM, Strain/Indicator: TA1537, Metabolic Activation: RAT LIVER S-9, PHENOBARBITAL AND BETA-NAPHTHOFLAVONE, Method: PREINCUBATION); “inactive; negative” (Test System: AMES SALMONELLA TYPHIMURIUM, Strain/Indicator: TA1538, Metabolic Activation: NONE, Method: PREINCUBATION); “inactive; negative” (Test System: AMES SALMONELLA TYPHIMURIUM, Strain/Indicator: TA1538, Metabolic Activation: RAT LIVER S-9, PHENOBARBITAL AND BETA-NAPHTHOFLAVONE, Method: PREINCUBATION); “inactive; negative” (Test System: E.COLI, Strain/Indicator: WP2UVRA, Metabolic Activation: NONE, Method: PREINCUBATION); “inactive; negative” (Test System: E.COLI, Strain/Indicator: WP2UVRA, Metabolic Activation: RAT LIVER S-9, PHENOBARBITAL AND BETA-NAPHTHOFLAVONE, Method: PREINCUBATION).

For the compound `C=CC(=O)OCC` (tested in a mixture with another compound), the mutagenic call runs as follows: (Test System: AMES SALMONELLA TYPHIMURIUM, Strain/Indicator: TA100, Metabolic Activation: RAT, LIVER, S-9, AROCLOR 1254, Method: STANDARD PLATE) “active; positive”; (Test System: AMES SALMONELLA TYPHIMURIUM, Strain/Indicator: TA1535, Metabolic Activation: RAT, LIVER, S-9, AROCLOR 1254, Method: STANDARD PLATE) “active; positive”; (Test System: AMES SALMONELLA TYPHIMURIUM, Strain/Indicator: TA1538, Metabolic Activation: RAT, LIVER, S-9, AROCLOR 1254, Method: STANDARD PLATE) “inactive; negative”.

On to `CC(C)CCCCCOC(=O)C[S][Sn]([CH3])([S]CC(=O)OCCCCCC(C)C)[S]CC(=O)OCCCCCC(C)C`, for which the mutagenic call runs as follows: (Test System: AMES SALMONELLA TYPHIMURIUM, Strain/Indicator: TA97, Metabolic Activation: HAMSTER, LIVER, S-9, AROCLOR 1254 (10%), Method: PREINCUBATION) “inactive; negative”; (Test System: AMES SALMONELLA TYPHIMURIUM, Strain/Indicator: TA97, Metabolic Activation: HAMSTER, LIVER, S-9, AROCLOR 1254 (30%), Method: PREINCUBATION) “inactive; negative”; under setting [7], “inactive; negative”; (Test System: AMES SALMONELLA TYPHIMURIUM, Strain/Indicator: TA97, Metabolic Activation: RAT, LIVER, S-9, AROCLOR 1254 (10%), Method: PREINCUBATION) “inactive; negative”; (Test System: AMES SALMONELLA TYPHIMURIUM, Strain/Indicator: TA97, Metabolic Activation: RAT, LIVER, S-9, AROCLOR 1254 (30%), Method: PREINCUBATION) “inactive; negative”; under setting [8], “inactive; negative”. The mutagenic call by setting is: under setting [1], “inactive; negative”; under setting [9], “inactive; negative”; under setting [10], “inactive; negative”; under setting [2], “inactive; negative”; under setting [11], “inactive; negative”; under setting [3], “inactive; negative”. Moreover, the mutagenic call reads like this: (Test System: AMES SALMONELLA TYPHIMURIUM, Strain/Indicator: TA1535, Metabolic Activation: HAMSTER, LIVER, S-9, AROCLOR 1254 (30%), Method: PREINCUBATION) “inactive; negative”; under setting [4], “inactive; negative”; under setting [5], “inactive; negative”; (Test System: AMES SALMONELLA TYPHIMURIUM, Strain/Indicator: TA1535, Metabolic Activation: RAT, LIVER, S-9, AROCLOR 1254 (30%), Method: PREINCUBATION) “inactive; negative”; (Test System: AMES SALMONELLA TYPHIMURIUM, Strain/Indicator: TA1537, Metabolic Activation: HAMSTER, LIVER, S-9, AROCLOR 1254 (30%), Method: PREINCUBATION) “inactive; negative”; under setting [6], “inactive; negative”. For the same compound, under “Test System: AMES SALMONELLA TYPHIMURIUM, Strain/Indicator: TA1537, Metabolic Activation: RAT, LIVER, S-9, AROCLOR 1254 (30%), Method: PREINCUBATION”, the mutagenic call was “inactive; negative”.

Turning to `CCCCN(CC)CC`, the mutagenic call is “inactive; negative” (Test System: AMES SALMONELLA TYPHIMURIUM, Strain/Indicator: TA97, Metabolic Activation: HAMSTER, LIVER, S-9, AROCLOR 1254 (10 OR 30%), Method: PREINCUBATION); “inactive; negative” under setting [7]; “inactive; negative” (Test System: AMES SALMONELLA TYPHIMURIUM, Strain/Indicator: TA97, Metabolic Activation: RAT, LIVER, S-9, AROCLOR 1254 (10 OR 30%), Method: PREINCUBATION); “inactive; negative” under setting [8]; “inactive; negative” under setting [1]; “inactive; negative” under setting [9]. For the same compound, the mutagenic call is, setting by setting: under setting [10], “inactive; negative”; under setting [2], “inactive; negative”; under setting [11], “inactive; negative”; (Test System: AMES SALMONELLA TYPHIMURIUM, Strain/Indicator: TA1535, Metabolic Activation: HAMSTER, LIVER, S-9, AROCLOR 1254 (10 OR 30%), Method: PREINCUBATION) “inactive; negative”; under setting [4], “inactive; negative”; (Test System: AMES SALMONELLA TYPHIMURIUM, Strain/Indicator: TA1535, Metabolic Activation: RAT, LIVER, S-9, AROCLOR 1254 (10 OR 30%), Method: PREINCUBATION) “inactive; negative”.
